Results: patent publication US8946268B2, “Modulators of HEC1 activity and methods therefor” (Taivex Therapeutics, Inc., priority 2010, dated 2015)

Key:
Format in all cases: cell-based
MDA-MB-468 = assay: Antiproliferative activity (MTS assay), MDA-MB-468; conditions: Homo sapiens, MDA-MB-468, 96 h, MDA-MB-468 cells
Description: (§1) Antiproliferative effect is expressed as IC50 values in microMolar final concentration.
(§2) Cells were grown at 37° C. in a humidified atmosphere with 5% CO2 and 95% air. Cells were seeded in 96 well tissue culture plates.
(§3) Compound treatment started after overnight incubation of cells (TO). […] Compound was added to the plate in triplicate wells, and the plates were then incubated for 96 hours. DMSO (compounds diluents) was also included and added to the plate in control wells. Cell viability was then determined by MTS assay using CellTiter 96® AQueous non-radioactive cell proliferation assay system (Promega). A plate reader (Molecular Devices, Vmax) was used to read the optical densities, and the results were used to deduce concentration-response curves. […] The results were analyzed using linear regression software (GraphPad Prism 5; GraphPad Software Inc.).
(§4) The GI50 values (growth inhibitory activity) were determined to emphasize on the correction for the cell count at time zero; thus, the % inhibition of test drug were: [1−(T−T0)/(C−T0)]×100; and these value were used to plot the concentration-response curves, and then analyzed with linear regression software (GraphPad Prism 5).

K562 = assay: Antiproliferative activity (MTS assay), K562; conditions: Homo sapiens, K562, 96 h, K562 cells
Description: as §1, §2, §3, §4

MDA-MB-231 = assay: Antiproliferative activity (MTS assay), MDA-MB-231; conditions: Homo sapiens, MDA-MB-231, 96 h, MDA-MB-231 cells
Description: as §1, §2, §3, §4

Hela = assay: Antiproliferative activity (MTS assay), Hela; conditions: Homo sapiens, HeLa, 96 h, Hela cells
Description: as §1, §2, §3, §4

SMILES	IC50 (MDA-MB-468) [µM]	IC50 (K562) [nM]	IC50 (MDA-MB-231) [µM]	IC50 (Hela) [µM]
COc1ccc(-c2nc(NC(=O)c3cccnc3)sc2C)cc1 [Compound 14]	> 10	> 10000	> 10	> 10
Cc1cc(O)ccc1-c1csc(NC(=O)c2ccc(C#N)cc2)n1 [Compound 61]	> 10	> 10000	> 10	> 10
CSc1cc(C)c(-c2csc(NC(=O)c3ccncc3)n2)c(C)c1 [Compound 125]	0.25	180	0.16	0.27
N#Cc1ccc(C(=O)Nc2nc(-c3ccc(O)cc3)cs2)cc1 [Compound 56]	> 10	> 10000	> 10	> 10
Cc1cc(Cl)cc(C)c1-c1csc(NC(=O)c2ccncc2)n1 [Compound 55]	0.89	760	0.59	0.73
COc1ccc(-c2csc(NC(=O)c3ccncc3)n2)cc1 [Compound 12]	2.88	3910	1.41	> 10
Cc1sc(NC(=O)c2ccccn2)nc1-c1ccccc1 [Compound 19]	6.85	> 10000	6.75	> 10
COc1ccc(-c2csc(NC(=O)c3ccnc(Cl)c3)n2)cc1F [Compound 63]	> 10	> 10000	> 10	> 10
Cc1ccc(-c2nc(NC(=O)c3ccccn3)sc2C)cc1 [Compound 32]	> 10	> 10000	> 10	> 10
Cc1cc(C)c(-c2csc(NC(=O)/C=C/c3cccnc3)n2)c(C)c1 [Compound 103]	2.17	2480	1.11	> 10
COc1ccc(Sc2cc(C)c(-c3csc(NC(=O)c4ccnc(F)c4)n3)c(C)c2)cc1 [Compound 126]	0.05	20	0.03	0.04
Cc1cc(C)c(-c2csc(NC(=O)c3ccc4[nH]nnc4c3)n2)c(C)c1 [Compound 106]	> 10	> 10000	4.95	> 10
Cc1cc(Sc2ccccc2)cc(C)c1-c1csc(NC(=O)c2ccncc2)n1 [Compound 115]	0.22	140	0.17	0.23
COc1cc(-c2csc(NC(=O)c3ccccn3)n2)ccc1O [Compound 36]	> 10	> 10000	> 10	> 10
COc1ccc(-c2nc(NC(=O)c3ccncc3)sc2C)cc1 [Compound 10]	8.89	> 10000	8.03	> 10
COc1ccc(-c2csc(NC(=O)Cc3ccccc3OC)n2)c(OC)c1 [Compound 40]	> 10	> 10000	> 10	> 10
O=C(Nc1nc(-c2ccc(O)cc2)cs1)c1ccncc1 [Compound 57]	> 10	> 10000	> 10	> 10
COc1ccc(-c2csc(NC(=O)c3ccccn3)n2)c(F)c1 [Compound 24]	> 10	> 10000	> 10	> 10
O=C(Nc1nc(-c2ccc(O)cc2)cs1)c1ccccn1 [Compound 59]	> 10	> 10000	> 10	> 10
O=C(Nc1nc(-c2ccc(O)cc2)cs1)c1ccncn1 [Compound 58]	> 10	> 10000	> 10	> 10
CCOc1cc(C)c(-c2csc(NC(=O)c3ccnc(F)c3)n2)c(C)c1 [Compound 70]	0.21	160	0.11	0.03
Cc1cc(C)c(-c2csc(NC(=O)c3ccnc(N4CCCCC4)c3)n2)c(C)c1 [Compound 91]	4.66	1400	6.06	> 10
COc1ccc(-c2csc(NC(=O)c3ccccn3)n2)c(OC)c1 [Compound 18]	> 10	> 10000	> 10	> 10
Cc1cc(C)c(-c2csc(NC(=O)Cc3ccncc3)n2)c(C)c1 [Compound 93]	0.3	380	0.31	0.62
COc1ccc(Oc2cc(C)c(-c3csc(NC(=O)c4cc[n+]([O-])cc4)n3)c(C)c2)cc1 [Compound 120]	0.25	180	0.22	0.16
